# Patent US10363251B2, “(+)-morphinans as antagonists of toll-like receptor 9 and therapeutic uses thereof” (Mallinckrodt LLC, priority 2009, dated 2019)
# Entries after “also recorded” stand apart in the source; their conditions may differ.
# Experiments:
# [1] = tested on: cytoplasmic DNA receptor AIM2; test: IFN-β up-regulation in plasmacytoid dendritic cells by poly (dA:dT); type: cell-based
# From the text: (§1) TLR9 signalling involves activation of NF-κB and IRF downstream pathways. The (+)-morphinan inhibited both of these pathways following activation of TLR9 (but not activation of TLR4 or other receptors). The type C TLR9 agonist, ODN2395, and the TL4 agonist, LPS, both induce up-regulation of IL-1β in peritoneal macrophages via activation of NF-κB.
# TLR9 [2] = test: IL-1β up-regulation in peritoneal macrophages by TLR9 agonist ODN2395; type: cell-based
# From the text: as §1
# [3] = tested on: hepatic ischemia reperfusion (IR) injury; test: Hepatic ischemia reperfusion (IR) injury model; type: in vivo, mouse
# Protocol: Anesthetized mice were subjected to 1 hour of hepatic ischemia by occluding the vasculature supplying the left and median lobes (ischemic lobes) of the liver by a microvascular clamp. Thereafter, the blood supply was resumed (reperfusion). Some animals were sacrificed after 3 hour of reperfusion, and others after 12 hours or reperfusion. The experimental group received Cmpd II-78 at a dose of 80 mg/kg given intraperitoneally 1 hour prior to starting ischemia. The compound was administered before the start of ischemia to mimic the presumed clinical timing of delivery.
# Livers were sectioned, stained, examined, and scored (Suzuki scoring system) based on the presence and/or severity of sinusoidal congestion, cytoplasmic vacuolization, and necrosis of parenchymal cells, as indicated in the table below. The levels of serum alanine transaminase (ALT) were also measured using a standard assay.
# IL-1β, MCP-1, and NLPR3 have pro-inflammatory and tissue damaging properties, and IL-1R antagonist (IL-1Ra) has anti-inflammatory and pro-reparative functions in the liver. MAP kinases are part of an important cytoplasmic signaling cascade that are known to be activated (i.e., phosphorylated) by IR. The levels of IL-1β, MCP-1, NLPR3, and IL-1Ra mRNA were determined in whole liver (at the 12 hour time point) using standard techniques (e.g., RT-PCR). The activation of MAP kinases was determined in whole liver lysates by Western blotting using phospho-specific antibodies (12 hour time point).
# TLR9 [4] = test: IFN-β up-regulation in plasmacytoid dendritic cells by TLR9 agonist ODN2395; type: cell-based
# From the text: as §1
# [5] = tested on: chronic constriction injury (CCI) neuropathic pain model; test: Mechanical allodynia (Von Frey) in chronic constriction injury (Bennett) model, Example 3; type: in vivo, rat; conditions: Day 14 post-surgery, 30 and 90 min post-dosing, vs vehicle; for Mechanical allodynia (50% allodynia threshold), left (affected) paw: (+)-naloxone.HCl 66.7 mg/kg S.C., Gabapentin 100 mg/kg I.P.
# From the text: Neuropathic pain affects approximately 1% of the U.S. population and is extremely difficult to manage. Usually the pain is chronic, severe, and fails to respond to traditional analgesic drugs. Fortunately, one of the most widely used animal models for neuropathic pain closely mimics the pain endured by patients. In this model, termed the chronic constriction injury (CCI) or Bennett model, four closely spaced ligatures tied loosely around the sciatic nerve of a rat cause demyelination of the nerve, resulting in spontaneous pain, such as prolonged paw elevation and licking of the ligated paw. Induced pain in the nerve-injured limb can be measured using Von Frey filaments, applied to the plantar surface of the paw to test for responses to non-noxious tactile stimulation. The onset of this heightened mechanical allodynia is quite rapid and it persists for 2-3 months.
# In this example, the CCI ligation was performed on the left sciatic nerve in three groups of rats. Von Frey testing of mechanical allodynia was performed on both paws on Day 14 to determine the analgesic efficacy of the test agent. The testing was performed pre-dosing, and at 30 and 90 minutes post-dosing.
# The animals were allocated to treatment groups based on their baseline Von Frey data, measured prior to surgery. The mechanical allodynia scores for each group were reviewed to ensure that the mean values and standard deviation satisfied the assumption of homogeneity. Thirty-one (31) animals were used on the study. Thirty (30) animals were initially allocated to treatment groups, and the remaining […] animals were held as spares. One spare was then used to replace an animal that died during surgery. Body weights were taken one day after arrival, prior to surgery and weekly thereafter. On Day 14, after the final behavioral testing, the animals were euthanized by carbon dioxide asphyxiation. No necropsy was performed nor tissues collected.
# All surgeries were performed under aseptic conditions. Prior to surgery, the rats were sedated using inhaled Isoflurane anesthetic. The left leg was shaved and prepped. The common sciatic nerve was exposed and freed from adherent tissue at mid-thigh by separating the muscle (biceps femoris) by blunt dissection. Proximal to the sciatic nerve's trifurcation; approximately 7 mm of nerve was freed from the adhering tissue. Four ligatures, approximately 1 mm apart, were tied loosely around the nerve using 6.0 chromic catgut. Each of the sutures was tied loosely with a square knot around the sciatic nerve. A brief twitch in the muscle surrounding the exposure was an indicator of the desired degree of constriction. The site was then closed using the appropriate suture material. Post-operative care and observations were carried out until the animal recovered consciousness.
# The animals underwent a series of behavioral testing for neuropathic pain assessment. A Von Frey test of mechanical allodynia was performed on both hind paws prior to surgery to achieve a baseline measurement for randomization and then following surgery on Day 14 (test article efficacy) according to Table 4.
# Twice prior to surgery, the animals were acclimated to the allodynia apparatus. This habituated the rats to the testing devices to familiarize them with the apparatus so they were calm at the time of testing. […] Animals were first habituated to the testing chamber so that they were calm enough for their pain threshold to be assessed. […]
# [6] = tested on: chronic constriction injury (CCI) neuropathic pain model; test: Reversal of allodynia (von Frey) in CCI rats, 4 days of dosing, Example 4; type: in vivo, rat; conditions: i.p. once a day for 4 days from day 14; tested 3 hrs after dosing; ultra low to high dose; vs saline
# Protocol: Allodynia was induced in a group of (male, Sprague-Dawley) rats essentially as described above in Example 3. Prior to surgery, animals were tested to establish their baseline von Frey scores. Any animal with a Log absolute von Frey score lower than 4.65 on either leg was excluded from the study. CCI surgery was performed on the left sciatic nerve as detailed above. On days 4 and 14 post-surgery, the animals were tested using the von Frey test of mechanical allodynia to ensure that allodynia was established.
# Beginning at about day 14 post-surgery, the animals were dosed once a day for 4 days. Compounds II-25, II-93, II-62, and III-2 were tested. All drugs were administered intraperitoneally (i.p.). Allodynia was tested prior to and again 3 hrs after each dosing. Drug administration and testing was done blindly. After the 4th day of dosing, the animals were sacrificed, cardiac perfusion was performed, and spinal cords were removed and stored for further analysis.
# All data were analyzed using 2-way ANOVA's with Bonferroni's post hoc test compared to saline unless otherwise stated. Area under curve (AUC) was calculated using Graphpad Prism and comparisons were made using 1-way ANOVA with Dunnet's post hoc test.
# [7] = whole liver, 12 hours of reperfusion
SMILES,IFN-β up-regulation [1],IL-1β mRNA up-regulation (NF-κB pathway) (TLR9 [2]),"Histological Suzuki score (hepatic IR injury) ([3]; 80 mg/kg ip 1 hour prior to ischemia, 1 h ischemia, 3 and 12 hours of reperfusion)","IR-induced serum ALT levels ([3]; 80 mg/kg ip, 3 and 12 hours of reperfusion)","Liver injury (serum ALT) ([3]; 80 mg/kg ip, 3 hour time point)","Liver injury (serum ALT) ([3]; 80 mg/kg ip, 12 hour time point)",IR-induced cleavage and activation of TLR9 (western blotting) ([3]; liver),"IR-induced activation of MAP kinases (western blotting) ([3]; whole liver lysates, 12 hour time point)","Anti-inflammatory molecule IL-1Ra mRNA relative to β-actin [3, 7]","IR-induced pro-inflammatory cytokines (IL-1β, MCP-1, NLPR3 mRNA relative to β-actin) [3, 7]",IFN-β mRNA up-regulation (IRF pathway) (TLR9 [4]),"Mechanical allodynia (50% allodynia threshold), left (affected) paw ([5]; listed as (+)-naloxone)","Mechanical allodynia (50% allodynia threshold), left (affected) paw ([5]; listed as (+)-naloxone.HCl)","Mechanical allodynia (50% allodynia threshold), right (unaffected) paw [5]",Reversal of allodynia (von Frey) [6]
CN[C@@H]1CC[C@]2(O)[C@@H]3Cc4ccc(O)c5c4[C@]2(CCN3CC2CC2)[C@@H]1O5 [II-78],this activation was not blocked,response was inhibited; also recorded: reduced both NFκB- and IRF-dependent pathways downstream of TLR9,reduced hepatic ischemic reperfusion (IR) injury,reduced IR-induced serum alanine transaminase (ALT) levels,trend towards reduction,significantly reduced liver injury,reduction of IR-induced cleavage and activation of LTR9,reduction of IR-induced activation of MAP kinases,increased an anti-inflammatory molecule,reduced IR-induced pro-inflammatory cytokines,this activation was inhibited; also recorded: reduced both NFκB- and IRF-dependent pathways downstream of TLR9,,,,
"C=CCN1CC[C@]23c4c5ccc(O)c4O[C@H]2C(=O)CC[C@]3(O)[C@H]1C5 [(+)-Naloxone, (+)-naloxone]",,,,,,,,,,,,effective at significantly reducing the allodynia,effective analgesic for reversing neuropathic pain,no significant group differences,not effective at reversing allodynia
